Tested on: platelet function
Assay: examination of the coagulation function of the global, in particular the primary, hemostasis; volumetric flow regulated by pressure change in the reaction opening at constant shear rate
Format: cell-based
Conditions: FIG. 29; volumetric flow regulated at specified constant shear rate
Text: The sealing time and the sealing volume are measurement values for clinical analysis.

## CC(=O)Oc1ccccc1C(=O)O [ASA, acetylsalicylic acid]
  deposition of platelets in the reaction opening: hardly any deposition of platelets
  measurement limits (sealing time / sealing volume): not reached

— US7223365B2, “Device and method for detecting the coagulation functions of global, especially primary hemostasis” (priority 2000, dated 2007)
